The text below walks through data of patent US10774080B2, “Pyrimidine compound as JAK kinase inhibitor” (THERAVANCE BIOPHARMA R&D IP, LLC, priority 2017, dated 2020).

The subject of experiment [1] is IL-13-induced STAT6 phosphorylation in BEAS-2B cells. Nature of the experiment: Assay 2: cellular JAK potency, IL-13-induced STAT6 phosphorylation in BEAS-2B cells. It is filed as cell-based. The settings on record: Homo sapiens, read-out: pIC50 for inhibition of IL-13 induced STAT6 phosphorylation (converted). As to the method: Assay 2: Cellular JAK Potency Assay: Inhibition of IL-13-Induced STAT6 Phosphorylation in BEAS-2B Cells
The cellular potency assay for JAK inhibition was carried out by measuring interleukin-13 (IL-13, R&D Systems) induced STAT6 phosphorylation in BEAS-2B human lung epithelial cells (ATCC). The anti-STAT6 antibody (Cell Signaling Technologies) was conjugated to AlphaScreen acceptor beads (Perkin Elmer), while the anti-pSTAT6 (pTyr641) antibody (Cell Signaling Technologies) was biotinylated using EZ-Link Sulfo-NHS-Biotin (Thermo Scientific).
BEAS-2B cells were grown at 37° C. in a 5% CO2 humidified incubator in 50% DMEM/50% F-12 medium (Life Technologies) supplemented with 10% FBS (Hyclone), 100 U/mL penicillin, 100 μg/mL streptomycin (Life Technologies), and 2 mM GlutaMAX (Life Technologies). […] After a minimum of 2 h incubation, the assay plates were read on the EnVision plate reader. AlphaScreen luminescence signals were recorded and utilized to calculate the percent inhibition values based on DMSO and background controls.
For dose-response analysis, percent inhibition data were plotted vs. compound concentrations, and IC50 values were determined from a 4-parameter robust fit model with the Prism software. Results may also be expressed as the negative logarithm of the IC50 value, pIC50.

Experiment [2] deals with IL-31-induced production of pSTAT3 in mouse skin. Nature of the experiment: Assay 9: in vivo IL-31-pSTAT3 JAK target engagement in mice. The arrangement: species or system Balb/c mice. The settings on record: topical ointment 25 μl/cm^2, 30 minutes before intradermal IL-31, biopsy one hour after IL-31. An excerpt: Assay 9: In Vivo IL-31-pSTAT3 JAK Target Engagement Assay in Mice
An in vivo model of IL-31-induced production of phosphorylated signal transducer and activator of transcription 3 (pSTAT3) in mice was used to assess local target engagement on mouse skin.
The JAK/STAT (janus kinase/signal transducer and activator of transcription) signaling pathway is a key element in the communication between immune cells and is mainly activated through cytokine receptors. Binding of cytokine IL-31 leads to the activation and phosphorylation of JAK1/JAK2 tyrosine kinases which in turn leads to the phosphorylation of STAT3 (pSTAT3). The activated STAT then translocates into the nucleus and directly regulates the transcription of cytokine-sensitive genes. In these studies, Balb/c mice were dosed with an ointment formulation of compound (I). Ointment vehicle (Table 9) or compound (I) formulated in the ointment vehicle was applied topically to shaved skin (25 μl/cm^2) 30 minutes before the intradermal injection (50 μl/1×1 cm2 site) of IL-31 (1 μg/ml) at a 1×1 cm^2 shaved area of skin on the back between the ears. One hour after IL-31, skin biopsies were collected. The tissue samples were flash frozen and analyzed for pSTAT3 by ELISA and compound concentration. Compound (I) inhibited pSTAT3 production by 80% and the skin tissue concentration of compound (I) was 62 μM.

For experiment [3], the system named is IL-13 stimulated STAT6 phosphorylation in normal human epidermal keratinocytes. Nature of the experiment: Assay 13: inhibition of IL-13 stimulated pSTAT6 in normal human epidermal keratinocytes. It is filed as cell-based. The settings on record: Keratinocyte, read-out: pIC50 for inhibition of IL-13 induced STAT6 phosphorylation (converted). As to the method: Assay 13: Inhibition of IL-13 Stimulated pSTAT6 in Normal Human Epidermal Keratinocytes
The potency of test compounds for inhibition of interleukin-13 (IL-13) stimulated STAT6 phosphorylation was measured in the normal human epidermal keratinocytes (ATCC) using AlphaLisa. Phosphorylated STAT6 was measured via the AlphaLISA SureFire Ultra pSTAT6 (Tyr641) kit (PerkinElmer).
Primary epidermal keratinocytes were cultured in a 37° C., 5% CO2 humidified incubator in dermal cell basal medium (ATCC) supplemented with keratinocyte growth kit (ATCC) and 1× Pen/Strep (Life Technologies). […]
After cytokine stimulation, cells were lysed with 5 ul of 5× AlphaLisa Lysis Buffer (PerkinElmer) containing 1× PhosStop and Complete tablets (Roche). […] Phosphorylated STAT6 was measured via the pSTAT6 AlphaLisa kit (PerkinElmer). […] Luminescence was measured with excitation at 689 nm and emission at […] using an EnVision plate reader (PerkinElmer) under green filtered <100 lux light.
Luminescence signals were recorded and utilized to calculate the percent inhibition values based on DMSO and controls. For dose-response analysis, percent inhibition data were plotted vs. compound concentrations, and IC50 values were determined from a 4-parameter robust fit model with the Prism software.

Regarding `CCS(=O)(=O)N1[C@@H]2CCC[C@H]1C[C@H](N(C)c1nc(CO)c(F)c(Nc3cc(C)[nH]n3)n1)C2` [Compound (I), (2-(((1R,3s,5S)-9-(ethylsulfonyl)-9-azabicyclo[3.3.1]nonan-3-yl)(methyl)amino)-5-fluoro-6-((5-methyl-1H-pyrazol-3-yl)amino)pyrimidin-4-yl)methanol], the figures for the IC50 in experiment [1] and in experiment [3] were 3.16 nM and 5.01 nM, respectively. Moreover, the “inhibition of IL-31-induced pSTAT3 production” value in experiment [2] stood at 80%.
